Experiments:
[1] = test system: pEGFR(Tyr1068), pPRAS40(Thr 246) in HT29 cells; experiment: Western blot of total and phosphorylated EGFR and PRAS40 in HT29 cells with EGF, 2 hours (FIG. 4); format: cell-based; conditions: cetuximab 1/75, encorafenib 0.05 μM
Text: C in the first lane stands for control, non-treated cell line sample. The second lane is the same control cell receiving EGF.
C in the first lane stands for control, non-treated cell line sample. Second lane is same control cell receiving EGF.

HT29 cells = experiment: Emergence of resistance to encorafenib in HT29 cells (FIGS. 5-8); format: cell-based
Description: FIGS. 5A-B are graphs that show the emergence of resistance to Encorafenib in the HT29 cell line across an incubation time of 3 weeks and measured by the percentage of cell viability. Cells were treated with 5 μM Encorafenib (FIG. 5A) or 10 μM Encorafenib (FIG. 5B) and incubated with EGF at 0.0 ng/mL, 0.1 ng/mL, Ing/mL, and 10 ng/mL.
FIGS. 6A-B are graphs that show the emergence of resistance to Encorafenib in the HT29 cell line across an incubation time of 15 weeks and measured by the percentage of cell viability.
FIGS. 7A-B are graphs that show the emergence of resistance to Encorafenib in the HT29 cell line across an incubation time of 15 weeks and measured by the percentage of cell viability. […] All tests were conducted at 1.0 ng/ml EGF
FIGS. 8A-B are graphs that show the emergence of resistance to 10 μM Encorafenib in the HT29 cell line with an incubation time of 90 days and measured by the percentage of tumor cell-free wells.
The effect of cells incubated with 5 μM encorafenib and treated with different concentrations of EGF were tested for cell viability during 3 weeks of incubation.
Next, the effects on cells incubated with 0.1 ng/mL EGF were tested.
The effects on cells incubated with 1.0 ng/mL EGF were tested over 15 weeks. The same conditions were repeated as in FIGS. 6A-B with the only difference being the 10-fold increase in EGF (FIG. 7A).
Lastly, the effects of HT29 cells incubated with 0.1 ng/ml and 1.0 ng/mLEGF were tested over a course of 90 days (FIGS. 8A-B).

[2] = clinical data, BRAF V600E mutation-positive advanced melanoma; cited from earlier work
[3] = test system: EGFR-mut NSCLC cell lines; conditions: cited from earlier work
[4] = 10 μM versus 5 μM encorafenib, EGF 0.0-10 ng/mL, 3 weeks

COC(=O)N[C@@H](C)CNc1nccc(-c2cn(C(C)C)nc2-c2cc(Cl)cc(NS(C)(=O)=O)c2F)n1 [Encorafenib]
inhibition of pPRASO [1]: did not inhibit
growth of positive cells (emergence of resistance) (HT29 cells; 0.1 ng/mL EGF, encorafenib 10 μM, 15 weeks): allows the growth of positive cells to a much greater extent
positive growth (emergence of resistance) (HT29 cells; 1.0 ng/mL EGF, 15 weeks): resistance
proliferation / percentage of viable cells (positive wells) (HT29 cells; [4]): substantially lower
time point at which resistance began (HT29 cells; [4]): earlier time point
proliferation / percentage of viable cells (positive wells) (HT29 cells; 10 μM versus 5 μM encorafenib, EGF 0.0-10 ng/mL, 3 weeks, listed as encorafenib): lower proliferation of cells than with 5 μM encorafenib, but not by much

CC(C)(C)c1nc(-c2cccc(NS(=O)(=O)c3c(F)cccc3F)c2F)c(-c2ccnc(N)n2)s1 [dabrafenib, Dabrafenib]
time to occurrence of resistance [2]: within six to seven months

C=CC(=O)Nc1cc(Nc2nccc(-c3cn(C)c4ccccc34)n2)c(OC)cc1N(C)CCN(C)C [osimertinib]
antiproliferative effects of the TKI when EGF is present [3]: significantly reduced
